Laboratory results: publication PMC10545747, “Development of cyclopeptide inhibitors of cGAS targeting protein-DNA interaction and phase separation” (Nature Communications, 2023)
Values joined by “and” are separate entries in the source; they are usually repeats but may differ in a detail not shown here. Identical values can stand only once. Square brackets hold non-standard residues; d marks the D form. Peptide text beside a SMILES is read from it.

Legend:
HSV-1 in THP1 cells = assay: HSV-1(UL5) mRNA by qPCR (virus infection of cells); format: cell-based, herpes simplex virus-1; parameters: key to HSV-1(UL5) mRNA, qPCR, Fig. 5d / HSV-1(UL5) mRNA (Fig. S8e): relative mRNA level, target CT normalized to GAPDH CT
Experimental: (§1) The indicated cells were stimulated with either ISD (Sangon Biotech), HSV-1 (Provided by Dr. Zhengfan Jiang), HSV60mer (Sangon Biotech), SATE-cddA[70], 2’3’-cGAMP (Invivogen, Cat# tlrl-nacga23-1), ADU-S100 (MedChemExpress, Cat# HY-12885A) or Poly(I:C) (Invivogen, Cat# tlrl-pic) after XQ2 or XQ2B treatment. Total RNA was isolated from indicated cells that incubated with the drugs for indicated time or mice tissues by using NucleoZOL reagent (MACHEREY-NAGEL) according to the manufacturer’s instructions. The quantifications of mRNA levels were carried out by real-time PCR using a PerfectStart® Uni RT&qPCR Kit (TransGen Biotech) on the QuantStudio 5 qPCR machine (Applied Biosystems). Samples were carried out in triplicate and the target CT values were normalized to GAPDH CT values. Primers of qPCR used in this study can be found in Supplementary Table S2.

in vitro = conditions: human, THP1 cells, Cell viability (Fig. S7a)
Experimental: (§2) Cell viability was measured by cell counting kit-8 (TargetMol) according to the manufacturer’s instructions.
(§3) Supplementary Fig. 2. […]
(§4) (e-g) THP1 cells (e), L929 cells (f) and RAW264.7 cells (g) were exposed to the indicated doses of XQ2 for 48h, the cell viability was measured by CCK8 assay. Data are representative of three independent experiments in (a-g). (Data are presented as mean ± SD, n = 3 independent samples in (a-g), **p < 0.01, ***p < 0.001, ****p < 0.0001 using one-way ANOVA with Dunnett’s post hoc test).
(§5) Source data are provided as a Source Data file. […]
(§6) Relative viability(%) XQ2B
(§7) Supplementary Fig. 7. […] (a) THP1 cells were exposed to the indicated doses of XQ2 or XQ2B for 48h. The cell viability was measured by CCK8 assay. […]
(§8) Data are representative of three independent experiments with similar results in (e), or three independent experiments in (a -d, f, g) . (Data are presented as mean ± SD, n = 3 independent samples in (a-d, f, g), ns, not significant, **p < 0.01, ***p < 0.001, ****p < 0.0001 using one-way ANOV A with Dunnett’s post hoc test). Source data are provided as a Source Data file.

THP1 cells = assay: in vitro; conditions: for Cell viability (Fig. S7a): human, THP1 cells
Experimental: as §2, §3, §4, §5, §6, §7, §8

primary human PBMCs = assay: qPCR of IFNB1 and IL6 mRNA in ISD-stimulated PBMCs; format: cell-based; parameters: key to IFNB1 mRNA, qPCR, Fig. 2c / IL6 mRNA, qPCR, Fig. 2c / IFNB1 mRNA (Fig. S7f) / IL6 mRNA (Fig. S7f): relative mRNA level, target CT normalized to GAPDH CT
Experimental: as §1

[1] = tested on: HSV-1-infected THP1 cells; assay: qPCR of IFNB1/CXCL10/IL6 mRNA in THP1 cells stimulated by HSV-1 infection; format: cell-based, human; conditions: HSV-1, XQ2B
[2] = tested on: THP1 cells stimulated with poly (I: C) (TLR3 and RIG-I/MDA-5 pathways); assay: qPCR of IFNB1 mRNA in THP1 cells stimulated by poly (I: C); format: cell-based, human
From the text: We next evaluated the inhibitory effect of XQ2 against cGAS in murine fibroblast L929 cells, macrophage RAW264.7 cells and primary bone marrow-derived macrophages (BMDMs) from C57BL/6 mice.
as §1

Jurkat cells = tested on: Jurkat cells
Experimental: as §2
Supplementary Fig. 3. […] (a) L929 cells were pretreated for
4 h with DMSO or the indicated doses of XQ2, followed by stimulation with dsDNA for 4 h, and then cell lysates were
(b) Jurkat cells were exposed to the indicated doses of XQ2, and then stimulated with
Data are representative of three independent experiments in (a, b). (Data are presented as mean ± SD, n = 3 independent
provided as a Source Data file.
(1 picture or pasted object on this page, not shown here)

Q: What does the source list for `CC(C)C[C@@H]1NC(=O)[C@H](CCCNC(=N)N)NC(=O)[C@H](C(C)C)NC(=O)[C@@H]2CCCN2C(=O)[C@@H](Cc2ccccc2)NC(=O)[C@H](CC(C)C)NC(=O)[C@H](CCCNC(=N)N)NC(=O)[C@H]([C@@H](C)O)NC(=O)[C@H](C)NC(=O)[C@@H](Cc2ccccc2)NC1=O` [XQ2B] (cyclo([dF]ATRL[dF]PVRL))?
A: HSV-1 infection of THP1 cells, HSV1(UL5) mRNA (HSV-1 in THP1 cells; 10 μM): facilitated HSV-1 infection; HSV-1(UL5) mRNA (Fig. S8e) (HSV-1 in THP1 cells; HSV-1(1×104) 24h): 2.313 and 2.598 and 2.002; HSV-1(UL5) mRNA (Fig. S8e) (HSV-1 in THP1 cells; HSV-1(2×104) 24h): 4.745 and 4.808 and 4.905; viability at 48 h, 0.195312 µM (in vitro): 100%; viability at 48 h, 0.390625 µM (in vitro): 98%; viability at 48 h, 0.78125 µM (in vitro): 101%; viability at 48 h, 1.5625 µM (in vitro): 108%; viability at 48 h, 3.125 µM (in vitro): 97.6%; viability at 48 h, 6.25 µM (in vitro): 113%; viability at 48 h, 12.5 µM (in vitro): 100%; viability at 48 h, 25 µM (in vitro): 104%; viability at 48 h, 50 µM (in vitro): 68.2%; viability at 48 h, 100 µM (in vitro): 3.61%; viability at 48 h, 200 µM (in vitro): 3.63%; viability at 48 h, 400 µM (in vitro): 3.62%; cytotoxicity (THP1 cells): less cytotoxicity; IC50 (THP1 cells; 48 h): 89.5 ± 31.9 µM; Cell viability (Fig. S7a) (THP1 cells; 48 h, 0.195312 µM): 104.965; Cell viability (Fig. S7a) (THP1 cells; 48 h, 0.390625 µM): 103.952; Cell viability (Fig. S7a) (THP1 cells; 48 h, 100 µM): 3.53; Cell viability (Fig. S7a) (THP1 cells; 48 h, 200 µM): 3.549; Cell viability (Fig. S7a) (THP1 cells; 48 h, 400 µM): 3.541; ISD-induced IFNB1 and IL6 expression in PBMCs (primary human PBMCs; 10 μM): significantly inhibit the activation of cGAS induced by ISD; IFNB1 mRNA (Fig. S7f) (primary human PBMCs; PBMCs, ISD+XQ2B): 841.807 and 913.377 and 771.009; IL6 mRNA (Fig. S7f) (primary human PBMCs; PBMCs, ISD+XQ2B): 1185.13 and 642.626 and 1199.71; IFNB1 mRNA level (Fig. S7c) [1]: 7.282 and 8.679 and 8.662; IFNB1 mRNA level (Fig. S7c) ([2]; Poly(I:C), XQ2B): 1527.76 and 1720.01 and 1878.29; poly (I: C)-induced IFNB1 expression ([2]; THP1, 10 μM): no significant effect on signaling induced by STING agonists or TLR3 agonist such as poly (I: C); ISD-induced cell death (Jurkat cells): markedly reduced ISD-induced autophagy and cell death
